In patent US20090062243A1, “Lupane-Type Triterpenoids Modified at 30-Position and Analogues Thereof” (ADVANCED LIFE SCIENCES, INC., priority 2007, published 2009):

What was measured:
Daoy = experiment: MTS cell viability assay, Daoy; type: cell-based; conditions: Homo sapiens, Daoy, cells incubated 72 h
Protocol: (§1) Cells were plated, the evening before treatment, for each treatment on 96-well plates (1×10^4 cells/well) in 100 μL volume per well. Analog solutions were prepared by diluting each test compound in DSMO (10 mM) with the appropriate cell growth media for each individual cell line, or in “Universal Media” if several cell lines were to be assayed in parallel, immediately prior to cell treatment. Universal Media consisted of 5 mL sodium pyruvate (100× liquid stock, MediaTech), 5 mL glucose (100×, 45% liquid stock, MediaTech), 5 mL Penicillin/Streptomycin (100× liquid stock, MediaTech), 10 mL sodium bicarbonate (50× liquid stock, MediaTech), 25 mL Fetal Calf Serum, 1.25 mL insulin (4 mg/mL, Gibco) and […] RPMI media with 2 mM L-glutamine for a total volume of 500 mL.
(§2) Cells were treated by aspirating plating media from each well and adding 80 μL of betulinic acid (control) or each analog solution in serial dilutions to the adherent cells. All treatments were performed in triplicate. Growth media (80 μL) was added to 3 blank wells (no cells) to measure background from the growth media. Growth media alone (no DMSO or test compound) was added to 3 wells containing cells to measure the baseline MTS activity. Vehicle (DMSO) control in serial dilutions, added to cells, was also included to monitor basal toxicity from DMSO. Cells were incubated at 37° C. for 72 h, or 120 h for the OVCAR cell lines. MTS reagent (per 96-well plate) were prepared by combining 2 mL of MTS working solution (Cell Titer AQueous Non-Radioactive Cell Proliferation Assay, Promega, cat#G1112), 100 μL of 0.92 mg/mL phenazine methosulfate/Dulbecco's PBS and 2.1 mL growth media. MTS reagent (40 μL) were added to each well and incubated at 37° C. for 1.5 to 4 h. Plates were gently shaken by hand until solution in each well appeared homogenous. Absorbances at 490 nm were measured on a Wallac Victor II plate reader at multiple time points following the addition of MTS reagent for each plate. Triplicate absorbance (490 nm) measurements were averaged following background (no cell) subtraction for each drug concentration. Percent Cell Viability was calculated for each drug concentration using the following equation:
(§3) {[Absorbance(analog treated)]/[Absorbance(DMSO treated)]}×100%
(§4) Cytotoxicity dose response for the triterpenoid derivatives synthesized in SK-MEL-2 (melanoma), A-375 (melanoma), Daoy (glioblastoma), LN-229 (glioblastoma), OVCAR-3 (ovarian carcinoma), HT-29 (colon carcinoma), MCF-7 (breast carcinoma) cell lines using the standard MTS assay is summarized in Table 1. In Table 1, compounds 22a-d and compounds 23a-c refer to structures 22 and 23 in Scheme 5, respectively. Compounds 24aa-an and 24ba-bq refer to structure 24 in Scheme 6. Compounds 26a-e refer to structure 26 in Scheme 6. Compounds 36a-c refer to structure 36 in Scheme 10.

SK-MEL-2 (melanoma) = experiment: MTS cell viability assay, SK-MEL-2; type: cell-based; conditions: Homo sapiens, SK-MEL-2, cells incubated 72 h
Protocol: as §1, §2, §3, §4

Compound | IC50 (Daoy) | IC50 (SK-MEL-2 (melanoma))
C=C(CO)[C@@H]1CC[C@]2(CO)CC[C@]3(C)[C@H](CC[C@@H]4[C@@]5(C)CC[C@H](O)C(C)(C)[C@@H]5CC[C@]43C)[C@@H]12 [Compound 8a] | > 75 µM | > 75 µM
C=C(C(=O)O)[C@@H]1CC[C@]2(C(=O)O)CC[C@]3(C)[C@H](CC[C@@H]4[C@@]5(C)CCC(=O)C(C)(C)[C@@H]5CC[C@]43C)[C@@H]12 [Compound 11] | > 75 µM | > 75 µM
C=C(CO)[C@@H]1CC[C@]2(COC(C)=O)CC[C@]3(C)[C@H](CC[C@@H]4[C@@]5(C)CCC(=O)C(C)(C)[C@@H]5CC[C@]43C)[C@@H]12 [Compound 12] | > 45 µM | > 45 µM
C=C(C(=O)O)[C@@H]1CC[C@]2(COC(C)=O)CC[C@]3(C)[C@H](CC[C@@H]4[C@@]5(C)CCC(=O)C(C)(C)[C@@H]5CC[C@]43C)[C@@H]12 [Compound 13a] | > 45 µM | > 45 µM
C=C(C(=O)O)[C@@H]1CC[C@]2(CO)CC[C@]3(C)[C@H](CC[C@@H]4[C@@]5(C)CCC(=O)C(C)(C)[C@@H]5CC[C@]43C)[C@@H]12 [Compound 13b] | > 75 µM | > 75 µM
C=C(C(=O)O)[C@@H]1CC[C@]2(CO)CC[C@]3(C)[C@H](CC[C@@H]4[C@@]5(C)CC[C@H](O)C(C)(C)[C@@H]5CC[C@]43C)[C@@H]12 [Compound 15] | > 75 µM | > 75 µM
C=C(COC(C)=O)[C@@H]1CC[C@]2(CO)CC[C@]3(C)[C@H](CC[C@@H]4[C@@]5(C)CCC(=O)C(C)(C)[C@@H]5CC[C@]43C)[C@@H]12 [Compound 16] | > 45 µM | 43 µM
C=C(COC(C)=O)[C@@H]1CC[C@]2(C(=O)O)CC[C@]3(C)[C@H](CC[C@@H]4[C@@]5(C)CCC(=O)C(C)(C)[C@@H]5CC[C@]43C)[C@@H]12 [Compound 17a, 30-O-acetyl betulonic acid] | > 45 µM | > 45 µM
C=C(CO)[C@@H]1CC[C@]2(C(=O)O)CC[C@]3(C)[C@H](CC[C@@H]4[C@@]5(C)CCC(=O)C(C)(C)[C@@H]5CC[C@]43C)[C@@H]12 [Compound 17b] | > 45 µM | > 45 µM
C=C(COC(C)=O)[C@@H]1CC[C@]2(C=O)CC[C@]3(C)[C@H](CC[C@@H]4[C@@]5(C)CCC(=O)C(C)(C)[C@@H]5CC[C@]43C)[C@@H]12 [Compound 18a] | > 45 µM | > 45 µM
C=C(CO)[C@@H]1CC[C@]2(C=O)CC[C@]3(C)[C@H](CC[C@@H]4[C@@]5(C)CCC(=O)C(C)(C)[C@@H]5CC[C@]43C)[C@@H]12 [Compound 18b] | > 75 µM | > 75 µM
C=C(COC(C)=O)[C@@H]1CC[C@]2(C(=O)O)CC[C@]3(C)[C@H](CC[C@@H]4[C@@]5(C)CC[C@H](O)C(C)(C)[C@@H]5CC[C@]43C)[C@@H]12 [Compound 19a] | > 45 µM | > 45 µM
C=C(CO)[C@@H]1CC[C@]2(C(=O)O)CC[C@]3(C)[C@H](CC[C@@H]4[C@@]5(C)CC[C@H](O)C(C)(C)[C@@H]5CC[C@]43C)[C@@H]12 [Compound 19b] | > 45 µM | > 45 µM
C=C(C=O)[C@@H]1CC[C@]2(C=O)CC[C@]3(C)[C@H](CC[C@@H]4[C@@]5(C)CCC(=O)C(C)(C)[C@@H]5CC[C@]43C)[C@@H]12 [Compound 20] | 34 µM | 
C=C(CNCCO)[C@@H]1CC[C@]2(COC3CCCCO3)CC[C@]3(C)[C@H](CC[C@@H]4[C@@]5(C)CCC(=O)C(C)(C)[C@@H]5CC[C@]43C)[C@@H]12 (some centres unmarked) [Compound 22a] | 21 µM | 17 µM
